Laboratory results published in patent US20050203079A1, “Compounds having affinity at 5ht2C receptor and use thereof in therapy” (GLAXO GROUP LIMITED, priority 2002, published 2005).
Counter-ions that a name gives are not always drawn.

melting point | Structure (SMILES)
99 to 101 °C | COc1ccc(N2CC=C(c3cccc(Cl)c3)C2=O)cc1OCCN1CCC(C)CC1.Cl
207 to 209 °C | COc1ccc(N2CC=C(c3ccc(F)cc3)C2=O)cc1OCCN1CCCCC1 (as salt: hydrochloride)
